Like-named read-outs stand apart in the source and are kept apart here.
Assays:
[1] = tested on: rumen fluid; experiment: in vitro incubation of buffered rumen fluid (methane inhibition, propionate enhancement, headspace gases and volatile fatty acids); format: cell-based, sheep; conditions: for inhibition at 10 ppm / activation at 10 ppm / inhibition at 2 ppm / inhibition at 3 ppm / activation at 2 ppm / activation at 3 ppm / inhibition at 5 ppm / activation at 5 ppm: Ovis aries
Description: The compounds were tested for their ability to reduce or inhibit methane production and to enhance propionate formation. The method used is as follows:
The screening system is in vitro incubation of buffered rumen fluid with, or without, the addition of the test compound.
Rumen fluid is removed by suction from two rumenfistulated sheep, just before feeding. The fluid is strained and mixed. The incubation is for twenty hours in a shaking water-bath at 39° C. Each incubation flask contains: 30 ml McDougall's bicarbonate buffer, pH 6.7-6.9, 10 ml strained rumen fluid, 200 mg substrate (the substrate is a ground sample of the diet on which the sheep has been fed) and 1 ml 10% aqueous ethanol containing 0.2% Tween 80 and the compound under examination. Samples are taken at the end of the incubation period for analysis of headspace gases and volatile fatty acids, by g.l.c.
The compounds were tested at 10 ppm/flask, except for the compounds of Examples 9 and 10 which were tested at 5 ppm/flask.
Selected compounds were also tested according to the above protocol at doses of 2 and 3 ppm, the results being given in Table 2 below.
The compound of Example 1 was further tested in an in vitro a dose response study, according to the protocol above, at the doses shown in Table 3 below.

[2] = tested on: methanogenesis; experiment: in vivo gas collection screen in sheep (respirometer, methanogenesis and hydrogen evolution); conditions: 50 mg/sheep/day, 5 week period, same study
Description: In vivo studies in a "gas collection screen":
Groups of 4, 50 kg sheep were fed diets containing one of the compounds of formula (I) over a 5 week period. A different sheep from each group was put into a respirometer for 24 hours each day. Each sheep was thus monitored once in every […], gas flow was maintained by a peristaltic pump and measured using a commercial gas meter and a sub-sample collected in a butyl-rubber inner tube.

[3] = 20 h, read-out: VFA production % difference from control, Acetate
[4] = 20 h, read-out: VFA production % difference from control, Butyrate
[5] = 20 h, read-out: VFA production % difference from control, Propionate
[6] = 20 h, read-out: VFA production % difference from control, TVFA
[7] = 10 ppm/flask, 20 h, 39° C., read-out: % inhibition of methane
[8] = 20 h, read-out: VFA production % change from control, Acetate
[9] = 20 h, read-out: VFA production % change from control, Butyrate
[10] = 20 h, read-out: VFA production % change from control, Propionate
[11] = 20 h, read-out: VFA production % change from control, TVFA
[12] = Table 2, 2 ppm, read-out: % inhibition of methane
[13] = Table 2, 3 ppm, read-out: % inhibition of methane
[14] = 5 ppm/flask (Examples 9 and 10), 20 h, 39° C.

CN1CCN(CC(O)C(Cl)(Cl)Cl)CC1 (stereo not drawn) [Compound A, reference compound]
% hydrogen present ([1]; 10 ppm/flask, 20 h, 39° C.): 0.062%
Molar % VFA Acetate ([1]; 10 ppm/flask, 20 h, 39° C.): 65.3 Molar %
Molar % VFA Butyrate ([1]; 10 ppm/flask, 20 h, 39° C.): 9.13 Molar %
Molar % VFA Propionate ([1]; 10 ppm/flask, 20 h, 39° C.): 21.9 Molar %
TVFA ([1]; 10 ppm/flask, 20 h, 39° C.): 56.7 μM/ml
inhibition at 10 ppm [1, 3]: 35%
activation at 10 ppm [1, 4]: 9%
activation at 10 ppm [1, 5]: 19.9%
inhibition at 10 ppm [1, 6]: 22.6%
inhibition at 10 ppm [1, 7]: 50.6%

OC(COc1ccc(Cl)cc1)C(Cl)(Cl)Cl (stereo not drawn) [Example 2, 1,1,1-Trichloro-3-p-chlorophenoxypropan-2-ol]
% hydrogen present ([1]; 10 ppm/flask, 20 h, 39° C.): 2.49%
Molar % VFA Acetate ([1]; 10 ppm/flask, 20 h, 39° C.): 58.5 Molar %
Molar % VFA Butyrate ([1]; 10 ppm/flask, 20 h, 39° C.): 14.1 Molar %
Molar % VFA Propionate ([1]; 10 ppm/flask, 20 h, 39° C.): 24.1 Molar %
TVFA ([1]; 10 ppm/flask, 20 h, 39° C.): 56.9 μM/ml
inhibition at 2 ppm [1, 8]: 22.6%
inhibition at 3 ppm [1, 8]: 39%
activation at 2 ppm [1, 9]: 2%
activation at 3 ppm [1, 9]: 10.2%
activation at 2 ppm [1, 10]: 25.2%
activation at 3 ppm [1, 10]: 28.4%
inhibition at 2 ppm [1, 11]: 11.5%
inhibition at 3 ppm [1, 11]: 22.7%
inhibition at 10 ppm [1, 3]: 38.5%
activation at 10 ppm [1, 4]: 22.7%
activation at 10 ppm [1, 5]: 53.2%
inhibition at 10 ppm [1, 6]: 17.5%
inhibition at 10 ppm [1, 7]: 98.5%
inhibition at 2 ppm [1, 12]: 33.3%
inhibition at 3 ppm [1, 13]: 54.5%
% hydrogen in headspace gases ([1]; Table 2, 2 ppm): 0.09%
% hydrogen in headspace gases ([1]; Table 2, 3 ppm): 0.8%

OC(COc1ccccc1Br)C(Cl)(Cl)Cl (stereo not drawn) [Example 3, 1,1,1-Trichloro-3-o-bromophenoxypropan-2-ol]
% hydrogen present ([1]; 10 ppm/flask, 20 h, 39° C.): 2.30%
Molar % VFA Acetate ([1]; 10 ppm/flask, 20 h, 39° C.): 59.1 Molar %
Molar % VFA Butyrate ([1]; 10 ppm/flask, 20 h, 39° C.): 14.2 Molar %
Molar % VFA Propionate ([1]; 10 ppm/flask, 20 h, 39° C.): 24.1 Molar %
TVFA ([1]; 10 ppm/flask, 20 h, 39° C.): 57.2 μM/ml
inhibition at 2 ppm [1, 8]: 9.1%
inhibition at 3 ppm [1, 8]: 35.5%
activation at 2 ppm [1, 9]: 3.4%
activation at 3 ppm [1, 9]: 26.8%
activation at 2 ppm [1, 10]: 11.1%
activation at 3 ppm [1, 10]: 43.1%
inhibition at 2 ppm [1, 11]: 4.5%
inhibition at 3 ppm [1, 11]: 15.6%
inhibition at 10 ppm [1, 3]: 36.8%
activation at 10 ppm [1, 4]: 25%
activation at 10 ppm [1, 5]: 54.3%
inhibition at 10 ppm [1, 6]: 16.7%
inhibition at 10 ppm [1, 7]: 97.8%
inhibition at 2 ppm [1, 12]: 17.8%
inhibition at 3 ppm [1, 13]: 54.7%
% hydrogen in headspace gases ([1]; Table 2, 2 ppm): 0.02%
% hydrogen in headspace gases ([1]; Table 2, 3 ppm): 0.66%

CN(CC(O)C(Cl)(Cl)Cl)c1ccccc1 (stereo not drawn) [Example 5, 1,1,1-Trichloro-3-N-methylanilinopropan-2-ol]
% hydrogen present ([1]; 10 ppm/flask, 20 h, 39° C.): 1.9%
Molar % VFA Acetate ([1]; 10 ppm/flask, 20 h, 39° C.): 59.1 Molar %
Molar % VFA Butyrate ([1]; 10 ppm/flask, 20 h, 39° C.): 14.0 Molar %
Molar % VFA Propionate ([1]; 10 ppm/flask, 20 h, 39° C.): 24.0 Molar %
TVFA ([1]; 10 ppm/flask, 20 h, 39° C.): 57.5 μM/ml
inhibition at 2 ppm [1, 8]: 4.3%
activation at 2 ppm [1, 9]: 0.8%
activation at 2 ppm [1, 10]: 0.8%
inhibition at 2 ppm [1, 11]: 3.1%
inhibition at 10 ppm [1, 3]: 36.3%
activation at 10 ppm [1, 4]: 23.9%
activation at 10 ppm [1, 5]: 54.6%
inhibition at 10 ppm [1, 6]: 16.1%
inhibition at 10 ppm [1, 7]: 92.7%
inhibition at 2 ppm [1, 12]: 4.2%
% hydrogen in headspace gases ([1]; Table 2, 2 ppm): 0.02%

COc1cccc(NCC(O)C(Cl)(Cl)Cl)c1 (stereo not drawn) [Example 6, 1,1,1-Trichloro-3-(m-methoxy)anilinopropan-2-ol]
% hydrogen present ([1]; 10 ppm/flask, 20 h, 39° C.): 2.59%
Molar % VFA Acetate ([1]; 10 ppm/flask, 20 h, 39° C.): 63.2 Molar %
Molar % VFA Butyrate ([1]; 10 ppm/flask, 20 h, 39° C.): 8.50 Molar %
Molar % VFA Propionate ([1]; 10 ppm/flask, 20 h, 39° C.): 24.9 Molar %
TVFA ([1]; 10 ppm/flask, 20 h, 39° C.): 55.4 μM/ml
inhibition at 2 ppm [1, 8]: 9.3%
inhibition at 3 ppm [1, 8]: 41.8%
activation at 2 ppm [1, 9]: 15.3%
activation at 3 ppm [1, 9]: 15.2%
activation at 2 ppm [1, 10]: 12.6%
activation at 3 ppm [1, 10]: 41.7%
inhibition at 2 ppm [1, 11]: 4.5%
inhibition at 3 ppm [1, 11]: 21.5%
inhibition at 10 ppm [1, 3]: 40.4%
activation at 10 ppm [1, 4]: -6.6%
activation at 10 ppm [1, 5]: 36.8%
inhibition at 10 ppm [1, 6]: 25.3%
inhibition at 10 ppm [1, 7]: 97.5%
inhibition at 2 ppm [1, 12]: 11.5%
inhibition at 3 ppm [1, 13]: 77.8%
% hydrogen in headspace gases ([1]; Table 2, 2 ppm): 0.03%
% hydrogen in headspace gases ([1]; Table 2, 3 ppm): 1.09%

OC(CN(CC(O)C(Cl)(Cl)Cl)c1ccccc1)C(Cl)(Cl)Cl (stereo not drawn) [Example 7, N,N-Di (3,3,3-Trichloro-2-hydroxypropyl)aniline]
% hydrogen present ([1]; 10 ppm/flask, 20 h, 39° C.): 2.17%
Molar % VFA Acetate ([1]; 10 ppm/flask, 20 h, 39° C.): 61.9 Molar %
Molar % VFA Butyrate ([1]; 10 ppm/flask, 20 h, 39° C.): 9.72 Molar %
Molar % VFA Propionate ([1]; 10 ppm/flask, 20 h, 39° C.): 24.8 Molar %
TVFA ([1]; 10 ppm/flask, 20 h, 39° C.): 56.2 μM/ml
inhibition at 10 ppm [1, 7]: 87.9%
inhibition at 10 ppm ([1]; 10 ppm/flask, 20 h, 39° C., read-out: VFA production % difference from control, Acetate): 40.8%
activation at 10 ppm ([1]; 10 ppm/flask, 20 h, 39° C., read-out: VFA production % difference from control, Butyrate): 18.9%
activation at 10 ppm ([1]; 10 ppm/flask, 20 h, 39° C., read-out: VFA production % difference from control, Propionate): 39%
inhibition at 10 ppm ([1]; 10 ppm/flask, 20 h, 39° C., read-out: VFA production % difference from control, TVFA): 24.7%

O=C(CC(O)C(Cl)(Cl)Cl)c1ccc(Cl)cc1 (stereo not drawn) [Example 8, 1-p-Chlorophenacyl-2-hydroxy-3-trichloropropane]
% hydrogen present ([1]; 10 ppm/flask, 20 h, 39° C.): 0.05%
Molar % VFA Acetate ([1]; 10 ppm/flask, 20 h, 39° C.): 63.5 Molar %
Molar % VFA Butyrate ([1]; 10 ppm/flask, 20 h, 39° C.): 9.8 Molar %
Molar % VFA Propionate ([1]; 10 ppm/flask, 20 h, 39° C.): 23.7 Molar %
TVFA ([1]; 10 ppm/flask, 20 h, 39° C.): 50.5 μM/ml
inhibition at 10 ppm [1, 3]: 23.1%
activation at 10 ppm [1, 4]: 50.7%
activation at 10 ppm [1, 5]: 42.4%
inhibition at 10 ppm [1, 6]: 6.5%
inhibition at 10 ppm [1, 7]: 34.1%

OC(CC(O)C(Cl)(Cl)Cl)c1ccc(Cl)cc1 (stereo not drawn) [Example 9, 1-p-Chlorophenyl-1,3-dihydroxy-4,4,4-trichlorobutane]
% hydrogen present [1, 14]: 0.64%
Molar % VFA Acetate [1, 14]: 59.9 Molar %
Molar % VFA Butyrate [1, 14]: 10.7 Molar %
Molar % VFA Propionate [1, 14]: 26.4 Molar %
TVFA [1, 14]: 47.7 μM/ml
inhibition at 5 ppm [1, 3]: 38.5%
activation at 5 ppm [1, 4]: 59.7%
activation at 5 ppm [1, 5]: 53.2%
inhibition at 5 ppm [1, 6]: 15.5%
inhibition at 5 ppm ([1]; 5 ppm/flask (Examples 9 and 10), 20 h, 39° C., read-out: % inhibition of methane): 50.7%

CC[C@@]1([C@@H]2O[C@@H]([C@H]3O[C@@](O)(CO)[C@H](C)C[C@@H]3C)C[C@@H]2C)CC[C@H]([C@]2(C)CC[C@]3(C[C@H](O)[C@@H](C)[C@@H]([C@@H](C)[C@@H](OC)[C@H](C)C(=O)O)O3)O2)O1 [Monensin, reference compound]
methane inhibition [2]: 41%
